This is an account of results in patent publication US20260240200A1, “COMPOSITION COMPRISING AN N-GUANYLAMINO ACID FOR DRINKING WATER APPLICATION” (Evonik Operations GmbH, priority 2023, published 2026).

Where only a bound is given, the exact number is not on record here.

Data set [1] in a line: Determination of the dissolution time in 10 L tap water, neither stirred nor moved. The format is physicochemical. The following applies: not stirred or moved. The method, then:
The mixture was neither stirred nor moved. After 3 minutes there was no solid mixture at the bottom of the beaker.
A beaker with 10 L tap water was provided and 3 g (25.3 mmol) guanidinoacetic acid (GAA, powder, purchased from Gendone, China) was added. The powder sank to the bottom of the beaker. The mixture was not stirred or moved. After 4 days, no solid material was recognizable any more at the bottom of the beaker.

For data set [2] the following is noted: 15° C.; cited from earlier work.

With `N=C(N)NCC(=O)O` [guanidinoacetic acid], the “dissolution time (no solid material recognizable at the bottom of the beaker)” value in data set [1] is on record as at most 4 days. For the same molecule, in data set [2], the solubility in water is recorded as 1 g in 278 ml water.
